Assay results reported in ChEMBL document CHEMBL3627658, “Novel concept of enzyme selective nicotinamide adenine dinucleotide (NAD)-modified inhibitors based on enzyme taxonomy from the diphosphate conformation of NAD” (Bioorg Med Chem Lett, 2015).

How the values were obtained:
[1] = Inhibition of yeast ADH by Michaelis constant analysis; parameters: species or system Saccharomyces cerevisiae
[2] = Inhibition of Thermoanaerobacter brockii ADH by Michaelis constant analysis
[3] = Inhibition of Leuconostoc mesenteroides D-LDH by Michaelis constant analysis
[4] = Inhibition of pig heart LDH by Michaelis constant analysis; parameters: species or system Sus scrofa
[5] = Inhibition of pig heart MDH by Michaelis constant analysis; parameters: species or system Sus scrofa
Gallus gallus = species: Gallus gallus; assay: Inhibition of chicken liver NAD kinase assessed as residual activity relative to control

Ki [1] [mM] | Ki [2] [mM] | Ki [3] [mM] | Ki [4] [mM] | Ki [5] [mM] | Activity (Gallus gallus) [%] | Compound
0.62 | 0.71 | 10 | 0.8 | 0.7 | 81 | NC(=O)c1csc([C@@H]2O[C@H](COC(=O)[C@@H]3CCCC[C@H]3C(=O)OC[C@H]3O[C@@H](n4cnc5c(N)ncnc54)[C@H](O)[C@@H]3O)[C@@H](O)[C@H]2O)n1
2.6 | 7.1 | 24 | 3.9 | 3.3 | 60 | NC(=O)c1csc([C@@H]2O[C@H](COC(=O)[C@H]3CCCC[C@@H]3C(=O)OC[C@H]3O[C@@H](n4cnc5c(N)ncnc54)[C@H](O)[C@@H]3O)[C@@H](O)[C@H]2O)n1
3.6 | 7.2 | 20 | 2.7 | 1.8 | 64 | NC(=O)c1csc([C@@H]2O[C@H](COC(=O)CCC(=O)OC[C@H]3O[C@@H](n4cnc5c(N)ncnc54)[C@H](O)[C@@H]3O)[C@@H](O)[C@H]2O)n1
